Data reported in paper PMC12030706, “Novel ^177Lu-Labeled [Thz^14]Bombesin(6–14) Derivatives with Low Pancreas Accumulation for Targeting Gastrin-Releasing Peptide Receptor-Expressing Cancer” (Pharmaceuticals, 2025).

Key:
[1] = Ex vivo biodistribution in PC-3 tumor-bearing mice; conditions: mouse; for tissue uptake at 24 h: 24 h post-injection; for tissue uptake at 72 h: 72 h post-injection; for tissue uptake at 120 h: 120 h post-injection; for tissue uptake at 4 h: 4 h post-injection
Method: (§1) SPECT/CT imaging experiments were performed using an MILabs (Houten, The Netherlands) U-SPECT-II/CT scanner with a custom-made ultra-high-sensitivity big mouse collimator (2 mm pinhole size) following previously reported procedures. […] Male NOD.Cg-Rag1^tm1Mom Il2rg^tm1Wjl/SzJ (NRG) mice were used in these experiments because of their immunodeficient characteristics and excellent radiation tolerance. Mice were anaesthetized and subcutaneously implanted with 5 × 10^6 PC-3 prostate cancer cells (100 µL; 1:1 PBS/Matrigel) behind the left shoulder. SPECT/CT imaging and biodistribution studies were performed once the tumors reached a diameter of 5–8 mm, typically after approximately 4 weeks of growth.
(§2) For ex vivo biodistribution studies, the mice were injected with ~2–6 MBq of the radioligand. […] Blocking study was conducted at 1 h post-injection via co-injection of the radioligand with 100 μg of [D-Phe^6,Leu-NHEt^13,des-Met^14]Bombesin(6–14). Organs/tissues of interested were collected, weighed, and measured using an automatic gamma counter.

PC-3 tumor-bearing mice = experiment: Ex vivo biodistribution in PC-3 tumor-bearing mice
Method: as §1, §2

[2] = small intestine, Uptake in small intestine
[3] = 1 h blocked (co-injected with 100 µg [D-Phe6,Leu-NHEt13,des-Met14]Bombesin(6-14))
[4] = 1 h post-injection, 100 µg [D-Phe6,Leu-NHEt13,des-Met14]Bombesin(6–14)

CC(C)C[C@H](NC(=O)[C@H](Cc1cnc[nH]1)N(C)C(=O)CNC(=O)[C@@H](NC(=O)[C@H](C)NC(=O)[C@H](Cc1c[nH]c2ccccc12)NC(=O)[C@H](CCC(N)=O)NC(=O)[C@@H](Cc1ccccc1)NC(=O)CN1CCC(NC(=O)CN2CCN(CC(=O)O)CCN(CC(=O)O)CCN(CC(=O)O)CC2)CC1)C(C)(C)C)C(=O)N1CSC[C@H]1C(N)=O [[^177Lu]Lu-LW01110, metal not drawn]
tissue uptake at 24 h ([1]; liver, Uptake in liver): 0.13 ± 0.04 %ID/g
tissue uptake at 72 h ([1]; liver, Uptake in liver): 0.07 ± 0.01 %ID/g
tissue uptake at 120 h ([1]; liver, Uptake in liver): 0.04 ± 0.01 %ID/g
tissue uptake at 24 h ([1]; lungs, Uptake in lungs): 0.07 ± 0.03 %ID/g
tissue uptake at 1 h ([1]; muscle, Uptake in muscle, 1 h post-injection): 0.15 ± 0.02 %ID/g
tissue uptake at 24 h ([1]; muscle, Uptake in muscle): 0.01 %ID/g
tissue uptake at 72 h ([1]; muscle, Uptake in muscle): 0.01 %ID/g
tissue uptake at 1 h ([1]; pancreas, 100 ug, Uptake in pancreas, 1 h blocked (co-injected with 100 µg [D-Phe6,Leu-NHEt13,des-Met14]Bombesin(6-14))): 2.71 ± 0.76 %ID/g
tissue uptake at 1 h ([1]; pancreas, Uptake in pancreas, 1 h post-injection): 11.1 ± 1.37 %ID/g
tissue uptake at 4 h ([1]; pancreas, Uptake in pancreas): 4.91 ± 0.63 %ID/g
tissue uptake at 24 h ([1]; pancreas, Uptake in pancreas): 3.1 ± 0.48 %ID/g
tissue uptake at 120 h ([1]; pancreas, Uptake in pancreas): 0.34 ± 0.04 %ID/g
tissue uptake at 1 h ([1]; small intestine, 100 ug, Uptake in small intestine, 1 h blocked (co-injected with 100 µg [D-Phe6,Leu-NHEt13,des-Met14]Bombesin(6-14))): 0.49 ± 0.14 %ID/g
tissue uptake at 1 h ([1]; small intestine, Uptake in small intestine, 1 h post-injection): 2.01 ± 0.13 %ID/g
tissue uptake at 4 h [1, 2]: 0.56 ± 0.2 %ID/g
tissue uptake at 24 h [1, 2]: 0.3 ± 0.1 %ID/g
tissue uptake at 1 h ([1]; spleen, 100 ug, Uptake in spleen, 1 h blocked (co-injected with 100 µg [D-Phe6,Leu-NHEt13,des-Met14]Bombesin(6-14))): 0.21 ± 0.05 %ID/g
tissue uptake at 1 h ([1]; spleen, Uptake in spleen, 1 h post-injection): 0.28 ± 0.05 %ID/g
tissue uptake at 4 h ([1]; spleen, Uptake in spleen): 0.15 ± 0.03 %ID/g
tissue uptake at 72 h ([1]; spleen, Uptake in spleen): 0.1 ± 0.02 %ID/g
tissue uptake at 120 h ([1]; spleen, Uptake in spleen): 0.05 ± 0.01 %ID/g
tissue uptake at 1 h ([1]; stomach, 100 ug, Uptake in stomach, 1 h blocked (co-injected with 100 µg [D-Phe6,Leu-NHEt13,des-Met14]Bombesin(6-14))): 0.17 ± 0.1 %ID/g
tissue uptake at 1 h ([1]; stomach, Uptake in stomach, 1 h post-injection): 0.99 ± 0.21 %ID/g
tissue uptake at 4 h ([1]; stomach, Uptake in stomach): 0.43 ± 0.16 %ID/g
tissue uptake at 24 h ([1]; stomach, Uptake in stomach): 0.17 ± 0.07 %ID/g
tissue uptake at 72 h ([1]; stomach, Uptake in stomach): 0.08 ± 0.02 %ID/g
tissue uptake at 120 h ([1]; stomach, Uptake in stomach): 0.04 ± 0.02 %ID/g
tissue uptake at 1 h ([1]; testes, 100 ug, Uptake in testes, 1 h blocked (co-injected with 100 µg [D-Phe6,Leu-NHEt13,des-Met14]Bombesin(6-14))): 0.3 ± 0.16 %ID/g
tissue uptake at 24 h ([1]; testes, Uptake in testes): 0.02 ± 0.01 %ID/g
tissue uptake at 72 h ([1]; testes, Uptake in testes): 0.02 %ID/g
tissue uptake at 120 h ([1]; testes, Uptake in testes): 0.01 %ID/g
Uptake in lungs (PC-3 tumor-bearing mice; [3]): 0.52 ± 0.08 %ID/g
Uptake in muscle (PC-3 tumor-bearing mice; [3]): 0.14 ± 0.03 %ID/g
Tumor/blood uptake ratio (PC-3 tumor-bearing mice; 1 h post-injection): 15.9 ± 1.15
Uptake in adrenal glands (PC-3 tumor-bearing mice; 1 h post-injection): 1.22 ± 0.38 %ID/g
Uptake in blood (PC-3 tumor-bearing mice; 1 h post-injection): 0.69 ± 0.06 %ID/g
Uptake in bone (PC-3 tumor-bearing mice; 1 h post-injection): 0.14 ± 0.05 %ID/g
Uptake in brain (PC-3 tumor-bearing mice; 1 h post-injection): 0.03 ± 0.00 %ID/g
Uptake in liver (PC-3 tumor-bearing mice; 1 h post-injection): 0.40 ± 0.05 %ID/g
Uptake in lungs (PC-3 tumor-bearing mice; 1 h post-injection): 0.69 ± 0.12 %ID/g
Uptake in testes (PC-3 tumor-bearing mice; 1 h post-injection): 0.23 ± 0.04 %ID/g
reduction of average pancreas uptake by co-injection of blocker (PC-3 tumor-bearing mice; [4]): 76%
reduction of average tumor uptake by co-injection of blocker (PC-3 tumor-bearing mice; [4]): 73%
Uptake in adrenal glands (PC-3 tumor-bearing mice; 4 h post-injection): 1.02 ± 0.33 %ID/g
Uptake in brain (PC-3 tumor-bearing mice; 4 h post-injection): 0.03 ± 0.02 %ID/g
Uptake in heart (PC-3 tumor-bearing mice; 4 h post-injection): 0.06 ± 0.06 %ID/g
Uptake in liver (PC-3 tumor-bearing mice; 4 h post-injection): 0.23 ± 0.07 %ID/g
Uptake in lungs (PC-3 tumor-bearing mice; 4 h post-injection): 0.23 ± 0.11 %ID/g
Uptake in muscle (PC-3 tumor-bearing mice; 4 h post-injection): 0.03 ± 0.01 %ID/g
Uptake in testes (PC-3 tumor-bearing mice; 4 h post-injection): 0.06 ± 0.05 %ID/g
Uptake in heart (PC-3 tumor-bearing mice; 24 h post-injection): 0.03 ± 0.00 %ID/g
Uptake in spleen (PC-3 tumor-bearing mice; 24 h post-injection): 0.12 ± 0.02 %ID/g
Uptake in adrenal glands (PC-3 tumor-bearing mice; 72 h post-injection): 0.41 ± 0.06 %ID/g
Uptake in kidneys (PC-3 tumor-bearing mice; 72 h post-injection): 0.52 ± 0.10 %ID/g
Uptake in large intestine (PC-3 tumor-bearing mice; 72 h post-injection): 0.23 ± 0.04 %ID/g
Uptake in lungs (PC-3 tumor-bearing mice; 72 h post-injection): 0.06 ± 0.03 %ID/g
Uptake in pancreas (PC-3 tumor-bearing mice; 72 h post-injection): 1.03 ± 0.30 %ID/g
Uptake in small intestine (PC-3 tumor-bearing mice; 72 h post-injection): 0.09 ± 0.03 %ID/g
Uptake in large intestine (PC-3 tumor-bearing mice; 120 h post-injection): 0.09 ± 0.02 %ID/g
Uptake in lungs (PC-3 tumor-bearing mice; 120 h post-injection): 0.03 ± 0.03 %ID/g
Uptake in small intestine (PC-3 tumor-bearing mice; 120 h post-injection): 0.03 ± 0.00 %ID/g
Uptake in large intestine (PC-3 tumor-bearing mice; mouse, in vivo, 100 ug, 1 h): 0.29 ± 0.08 %ID/g
uptake in PC-3 tumor xenografts cleared within 24 h (PC-3 tumor-bearing mice; relative to 1 h uptake): 37%
